In patent publication US8178506B2, “Oligomeric compounds and compositions for use in modulation of small non-coding RNAs” (Regulus Therapeutics Inc., priority 2003, dated 2012):
In the oligonucleotide strings, read from the 5' end, every base follows the letter of its sugar. An asterisk marks phosphorothioate; unmarked linkages are phosphodiester. Other units and linkages are bracketed, terminal groups are in braces. A string of capitals states the bases alone. e = 2'-O-(2-methoxyethyl) (MOE); [5mC] = 5-methylcytosine

How the values were obtained:
Type in all cases: cell-based, human
[1] = system: aP2; test: aP2 mRNA expression in adipocytes (real-time PCR); settings: for aP2 mRNA: differentiating adipocytes transfected with oligomeric compound, Table 75; for AP2 mRNA: differentiating adipocytes, control = treatment with ISIS 342673
Description: (§1) Expression of the four hallmark genes, HSL, aP2, Glut4, and PPARγ, is also measured in adipocytes transfected with oligomeric compounds of the invention. Cells are lysed on day nine post-transfection and total RNA is harvested. The amount of total RNA in each sample is determined using a Ribogreen Assay (Invitrogen Life Technologies, Carlsbad, Calif.).
(§2) For assaying adipocyte differentiation, expression of the four hallmark genes, HSL, aP2, Glut4, and PPARγ, as well as triglyceride (TG) accumulation and leptin secretion were measured in adipocytes transfected with the uniform 2′-MOE phosphorothioate (PS) oligomeric compounds previously described. Cells are lysed on day nine post-transfection, in a guanadinium-containing buffer and total RNA is harvested. Real-time PCR is performed (Applied Biosystems, Prism 7700) on the total RNA using the following primer/probe sets for the adipocyte differentiation hallmark genes: (aP2): forward 5′-GGTGGTGGAATGCGTCATG-3′ (SEQ ID NO: 746), reverse 5′-[…]-3′ (SEQ ID NO: 747), probe 5′-FAM-[…]-TAMRA-3′ (SEQ ID NO: 748); (Glut4): forward 5′-GGCCTCCGCAGGTTCTG-3′ (SEQ ID NO: 749), reverse 5′-[…]-3′ (SEQ ID NO: 750), probe 5′-FAM-[…]-TAMRA-3′ (SEQ ID NO: 751); (HSL): forward 5′-ACCTGCGCACAATGACACA-3′ (SEQ ID NO: 752), reverse 5′-[…]-3′ (SEQ ID NO: 753), probe 5′-FAM-[…]-TAMRA-3′ (SEQ ID NO: 754); (PPAR-γ): forward 5′-[…]-3′ (SEQ ID NO: 755), reverse 5′-[…]-3′ (SEQ ID NO: 756), probe 5′-FAM-[…]-TAMRA-3′ (SEQ ID NO: 757). The amount of total RNA in each sample is determined using a Ribogreen Assay (Molecular Probes, Eugene, Oreg.), and expression levels of the adipocyte differentiation hallmark genes were normalized to total RNA.

[2] = system: adipocytes; test: Triglyceride accumulation assay in adipocytes
Description: The triglyceride accumulation assay measures the synthesis of triglyceride by adipocytes. Triglyceride accumulation is measured using the Infinity™ Triglyceride reagent kit (Sigma-Aldrich, St. Louis, Mo.). On day nine post-transfection, cells are washed and lysed at room temperature, and the triglyceride assay reagent is added. Triglyceride accumulation is measured based on the amount of glycerol liberated from triglycerides by the enzyme lipoprotein lipase. Liberated glycerol is phosphorylated by glycerol kinase, and hydrogen peroxide is generated during the oxidation of glycerol-1-phosphate to dihydroxyacetone phosphate by glycerol phosphate oxidase. Horseradish peroxidase (HRP) uses H2O2 to oxidize 4-aminoantipyrine and 3,5 dichloro-2-hydroxybenzene sulfonate to produce a red-colored dye. Dye absorbance, which is proportional to the concentration of glycerol, is measured at 515 nm using an UV spectrophotometer. Glycerol concentration is calculated from a standard curve for each assay, and data are normalized to total cellular protein as determined by a Bradford assay (Bio-Rad Laboratories, Hercules, Calif.).
An increase in triglyceride content is another well-established marker for adipocyte differentiation. The triglyceride accumulation assay measures the synthesis of triglyceride by adipocytes. Triglyceride accumulation was measured using the Infinity™ Triglyceride reagent kit (Sigma-Aldrich, St. Louis, Mo.). Human white preadipocytes (Zen-Bio Inc., Research Triangle Park, N.C.) were grown in preadipocyte media (ZenBio Inc.). One day before transfection, 96-well plates were seeded with 3000 cells/well. Cells were transfected according to standard published procedures with 250 nM oligomeric compound in LIPOFECTIN™ (Invitrogen Corporation, Carlsbad, Calif.) (Monia et al., J. Biol. Chem. 1993 268(19):14514-22). Oligomeric compounds were tested in triplicate on each 96-well plate, and the effects of TNF-α, a positive drug control that inhibits adipocyte differentiation, were also measured in triplicate. Negative and transfectant-only controls may be measured up to six times per plate. After the cells have reached confluence (approximately three days), they were exposed to differentiation media (Zen-Bio, Inc.) containing a PPAR-γ agonist, IBMX, dexamethasone, and insulin for three days. Cells were then fed adipocyte media (Zen-Bio, Inc.), which was replaced at 2 to 3 day intervals. […] Triglyceride accumulation was measured based on the amount of glycerol liberated from triglycerides by the enzyme lipoprotein lipase. Liberated glycerol is phosphorylated by glycerol kinase, and hydrogen peroxide is generated during the oxidation of glycerol-1-phosphate to dihydroxyacetone phosphate by glycerol phosphate oxidase. Horseradish peroxidase (HRP) uses H2O2 to oxidize 4-aminoantipyrine and 3,5 dichloro-2-hydroxybenzene sulfonate to produce a red-colored dye. Dye absorbance, which is proportional to the concentration of glycerol, was measured at 515 nm using an UV spectrophotometer. Glycerol concentration was calculated from a standard curve for each assay, and data were normalized to total cellular protein as determined by a Bradford assay (Bio-Rad Laboratories, Hercules, Calif.). Results are expressed as a percent±standard deviation relative to transfectant-only control.

[3] = system: Glut4; test: Glut4 mRNA expression in adipocytes (real-time PCR)
Description: as §1, §2

[4] = system: HSL; test: HSL mRNA expression in adipocytes (real-time PCR)
Description: as §1, §2

[5] = system: PPARγ; test: PPARγ mRNA expression in adipocytes (real-time PCR)
Description: as §1, §2

[6] = differentiating adipocytes transfected with oligomeric compound, Table 75
[7] = Table 18, differentiating adipocytes, control = treatment with ISIS 342673
[8] = Table 17, differentiating adipocytes, control = treatment with ISIS 342673

| Substance | aP2 mRNA [1] | TG (triglyceride accumulation) [2, 6] | GLUT4 mRNA [3, 6] | HSL mRNA [4, 6] | PPAR gamma mRNA [5, 6] | AP2 mRNA ([1]; Table 18) | TG (triglyceride accumulation) [2, 7] | GLUT4 mRNA [3, 7] | HSL mRNA [4, 7] | PPAR gamma mRNA [5, 7] | AP2 mRNA ([1]; Table 17) | TG (triglyceride accumulation) [2, 8] | GLUT4 mRNA [3, 8] | HSL mRNA [4, 8] | PPAR gamma mRNA [5, 8] |
| --- | --- | --- | --- | --- | --- | --- | --- | --- | --- | --- | --- | --- | --- | --- | --- |
| 346920 (AGCAAAAAUGUGCUAGUGCCAAA; all 2'-MOE, all phosphorothioate, methylation of C and T or U not given here) [compound 346920] | 70 percentage of untreated control (UTC) | 63 percentage of untreated control (UTC) | 61 percentage of untreated control (UTC) | 53 percentage of untreated control (UTC) | 70 percentage of untreated control (UTC) |  |  |  |  |  |  |  |  |  |  |
| 346915 (ACAUCGUUACCAGACAGUGUUA; all 2'-MOE, all phosphorothioate, methylation of C and T or U not given here) [compound 346915] | 83 percentage of untreated control (UTC) | 73 percentage of untreated control (UTC) | 75 percentage of untreated control (UTC) | 67 percentage of untreated control (UTC) | 90 percentage of untreated control (UTC) |  |  |  |  |  |  |  |  |  |  |
| 344275 (antisense UCUAGUGGUCCUAAACAUUUCA; all 2'-MOE, all phosphorothioate, methylation of C and T or U not given here) [compound 344275] | 36 percentage of untreated control (UTC) | 36 percentage of untreated control (UTC) | 21 percentage of untreated control (UTC) | 39 percentage of untreated control (UTC) | 46 percentage of untreated control (UTC) |  |  |  |  |  |  |  |  |  |  |
| 348125 (GCUGGAUGCAAACCUGCAAAACU; anti-miR; all 2'-MOE, all phosphorothioate, methylation of C and T or U not given here) [compound 348125] | 67 percentage of untreated control (UTC) | 79 percentage of untreated control (UTC) | 65 percentage of untreated control (UTC) | 64 percentage of untreated control (UTC) | 64 percentage of untreated control (UTC) |  |  |  |  |  |  |  |  |  |  |
| 328102 (antisense eG*e[5mC]*e[5mC]*e[5mC]*e[5mC]*eA*eT*eT*eA*eA*eT*eA*eT*eT*eT*eT*eA*eA*e[5mC]*e[5mC]*eA) [compound 328102] | 96 percentage of untreated control (UTC) | 70 percentage of untreated control (UTC) | 58 percentage of untreated control (UTC) | 99 percentage of untreated control (UTC) | 94 percentage of untreated control (UTC) | 87.9 percentage of control | 95.9 percentage of control | 79.2 percentage of control | 97.0 percentage of control | 93.7 percentage of control |  |  |  |  |  |
| 328091 (antisense eG*e[5mC]*eT*eG*e[5mC]*e[5mC]*eG*eT*eA*eT*eA*eT*eG*eT*eG*eA*eT*eG*eT*e[5mC]*eA) [compound 328091] | 46 percentage of untreated control (UTC) | 48 percentage of untreated control (UTC) | 26 percentage of untreated control (UTC) | 40 percentage of untreated control (UTC) | 85 percentage of untreated control (UTC) |  |  |  |  |  |  |  |  |  |  |
| 328101 (antisense eA*eA*eA*e[5mC]*e[5mC]*e[5mC]*e[5mC]*eT*eA*eT*e[5mC]*eA*e[5mC]*eG*eA*eT*eT*eA*eG*e[5mC]*eA) [compound 328101] | 83 percentage of untreated control (UTC) | 67 percentage of untreated control (UTC) | 57 percentage of untreated control (UTC) | 78 percentage of untreated control (UTC) | 70 percentage of untreated control (UTC) | 83.2 percentage of control | 108.6 percentage of control | 84.7 percentage of control | 91.8 percentage of control | 79.3 percentage of control |  |  |  |  |  |
| 348117 (GAACCCACAAUCCCUGGCUUA; all 2'-MOE, all phosphorothioate, methylation of C and T or U not given here) [compound 348117] | 70 percentage of untreated control (UTC) | 66 percentage of untreated control (UTC) | 73 percentage of untreated control (UTC) | 55 percentage of untreated control (UTC) | 65 percentage of untreated control (UTC) |  |  |  |  |  |  |  |  |  |  |
| 340352 (antisense CACAAGAUCGGAUCUACGGGUU; all 2'-MOE, all phosphorothioate, methylation of C and T or U not given here) [compound 340352] | 107 percentage of untreated control (UTC) | 110 percentage of untreated control (UTC) | 97 percentage of untreated control (UTC) | 123 percentage of untreated control (UTC) | 102 percentage of untreated control (UTC) |  |  |  |  |  |  |  |  |  |  |
| 328135 (eA*e[5mC]*e[5mC]*eG*eA*eA*e[5mC]*eA*eA*eA*eG*eT*e[5mC]*eT*eG*eA*e[5mC]*eA*eG*eG*eA; anti-miR) [compound 328135] | 34 percentage of untreated control (UTC) | 29 percentage of untreated control (UTC) | 19 percentage of untreated control (UTC) | 20 percentage of untreated control (UTC) | 33 percentage of untreated control (UTC) |  |  |  |  |  | 80.6 percentage of control | 63.6 percentage of control | 90.3 percentage of control | 76.7 percentage of control | 70.0 percentage of control |
| 344613 (ACACCAAUGCCCUAGGGGAUGCG; anti-miR; all 2'-MOE, all phosphorothioate, methylation of C and T or U not given here) [compound 344613] | 55 percentage of untreated control (UTC) | 47 percentage of untreated control (UTC) | 38 percentage of untreated control (UTC) | 46 percentage of untreated control (UTC) | 57 percentage of untreated control (UTC) |  |  |  |  |  |  |  |  |  |  |
